Measured values from paper PMC12564302, “Discovery of N-Hydroxypyridinedione-Based Inhibitors of HBV RNase H: Design, Synthesis, and Extended SAR Studies” (International Journal of Molecular Sciences, 2025).
“Also recorded” adds a separate entry of the source. Read-outs that look alike come from different tables or passages of the source.

Legend:
[1] = MTS cytotoxicity assay; type: cell-based; conditions: human, HepDES19 cells, pH 7.4
Method: (§1) HepDES19 cells are a HepG2 cell-line derivative that has been stably transfected with an HBV genotype D genome containing a tetracycline repressible promoter. HepDES19 cells were maintained on collagen-coated plates in Dulbecco’s modified Eagle’s medium (DMEM/F12) (Cytiva Life Sciences, Marlborough, MA, USA) supplemented with 10% fetal bovine serum (FBS), streptomycin (100 µg/mL), and penicillin (100 IU/mL), and incubated at 37 °C with 5% CO2 and saturating humidity. Cells were cultured with 1 µg/mL tetracycline to inhibit the expression of the stably integrated HBV genome, and HBV replication was activated upon removal of tetracycline from the culture medium.
Cell viability was assessed using the CellTiter 96^TM Aqueous Non-Radioactive Cell Proliferation assay (MTS) (Promega, Madison, WI, USA) as described previously. HepDES19 cells were seeded in 96 well plates at 1 × 10^4 cells/well for 48 h. Cells were then incubated with serial diluted compound, with a final concentration of 1% DMSO, for 72 h. Following compound incubation, background absorbance values were subtracted, and the data were converted into percent cell viability. The cytotoxic concentration 50% (CC50) values were calculated using GraphPad Prism’s four-parameter log (inhibitor) versus response algorithm, with the bottom value set to zero. Three or more replicate assays were performed on different days.

[2] = Solubility limit assay; type: physicochemical; conditions: DMEM-F12 without phenol red with 10% FBS, pH 7.4, plasma or biological fluid, kinetic from dmso stock
Method: Solubility limits of compounds were tested as previously reported in DMEM-F12 without phenol red (Gibco, Grand Island, NY, USA) but with the media supplemented with 10% FBS (pH 7.4) to mimic cell culture experiments. In a 384-well optically clear plate, compounds were serially diluted in pH 7.4 buffer (upper limit 200 µM, DMSO 1%) then read at 620 nm. Solubility limits were determined by plotting compound concentration (µM) against optical density (OD) and identifying an inflexion point. The inflexion point is defined by a substantial increase in OD brought on by increasing turbidity, and the compound concentration at this point is known as the solubility limit. Each compound had at least two replicate assays performed on different days.

[3] = system: HBV replication in HepDES19 cells; assay: qPCR HBV replication inhibition assay; type: cell-based, HBV genotype D
Method: as §1
HBV replication inhibition in HepDES19 cells was assessed using a strand-preferential quantitative PCR assay as previously described. HepDES19 cells were seeded in 96 well plates at 4 × 10^4 cells/well for 48 h followed by the addition of serial diluted compound with a final concentration of 1% DMSO for 72 h, after which cells were lysed, and qPCR was performed as described in Li et al.. Effective concentration 50% (EC50) values were calculated from data for the (+) polarity DNA strand data using GraphPad Prism version 10’s four-parameter log (inhibitor) versus response algorithm, with the bottom value set to zero. Three or more replicate assays were performed on different days.

[4] = Parallel artificial membrane permeability assay; type: in vitro ADME; conditions: PAMPA, pH 7.4, PAMPA
Method: The evaluation of apparent passive permeability (Papp) at pH 7.4 was performed using a donor/acceptor cassette (Innovative Laboratory Products, Phoenix, AZ, USA and Sigma Aldrich, Burlington, MA, USA), which simulates the apical and basolateral sides of the small intestine epithelium, as previously described. An artificial membrane made of 1% w/v lecithin/dodecane was applied to the poly (vinylidene fluoride) (PVDF) membrane filter and allowed to dry. Following drying, compounds (200 µM) were diluted in buffer at pH 7.4 and added to the donor side of the cassette. The same pH buffer was added on the acceptor side of the cassette, after which it was assembled and incubated at room temperature with shaking at 250 rpm for 2 h, before reading the absorbance of 100 µL from the acceptor well on a plate reader between 230 and 700 nm. The Papp (cm/s) values for compounds were determined by normalizing to the compound absorbance at equilibrium using the peak absorbance point for each compound, buffer volume, incubation time, and membrane porosity. Two or more replicate assays were conducted on different days.

[5] = pH 7.4, DMEM-F12 with 10% FBS, 1% DMSO, upper limit 200 µM, read-out: Solubility Limit
[6] = pH 7.4, read-out: Solubility Limit Interpretation
[7] = Hepatitis B virus, HepDES19, 72 h, pH 7.4, HepDES19 cells, 72 h, (+) polarity DNA strand, pH 7.4, read-out: EC50
[8] = pH 7.4, 200 µM, 2 h, read-out: Papp
[9] = pH 7.4, read-out: Papp Interpretation

| Compound | CC50 at 72 h [1] [µM] | solubility [2, 5] [µM] | solubility [2, 6] [µM] | EC50 [3, 7] [µM] | Papp at 2 h, 200 µM [4, 8] [×10⁻⁶ cm/s] | Papp at 2 h, 200 µM [4, 9] [×10⁻⁶ cm/s] | EC50 ([3]; Hepatitis B virus, HepDES19, 72 h, experimental potencies of the E/Z mixture, read-out: EC50 mix) [µM] | anti-HBV activity (in words) ([3]; HepDES19 cells) | EC50 ([3]; HepDES19 cells, 72 h, (+) polarity DNA strand, pH 7.4, read-out: EC50) [µM] |
| --- | --- | --- | --- | --- | --- | --- | --- | --- | --- |
| CC(=NCc1ccccc1Br)c1c(C)cc(=O)n(O)c1O [Compound 33, 5-(1-((2-bromobenzyl)imino)ethyl)-1,6-dihydroxy-4-methylpyridin-2(1H)-one] | 51.3 ± 20.9 | > 200 | > 100 | 8.45 ± 3.5 | 1.22 | > 1 | – | – | – |
| CC(=Nc1ccc(F)c(Cl)c1)c1c(C)cc(=O)n(O)c1O [Compound 29, 5-(1-((3-chloro-4-fluorophenyl)imino)ethyl)-1,6-dihydroxy-4-methylpyridin-2(1H)-one] | 70.8 ± 18.4 | > 200 | > 100 | 3.25 ± 1 | 3.65 | > 1 | – | – | – |
| CC(=NCc1cc(F)cc(F)c1)c1c(C)cc(=O)n(O)c1O [Compound 42, 5-(1-((3,5-difluorobenzyl)imino)ethyl)-1,6-dihydroxy-4-methylpyridin-2(1H)-one] | 82.9 ± 24.6 | > 200 | > 100 | 73.7 ± 26.3 | 1.53 | > 1 | – | – | – |
| CC(=Nc1ccc(Cl)c(Cl)c1)c1c(C)cc(=O)n(O)c1O [Compound 24, 5-(1-((3,4-dichlorophenyl)imino)ethyl)-1,6-dihydroxy-4-methylpyridin-2(1H)-one] | 69 | > 200 | > 100 | 2.17 ± 0.8 | 2.24 | > 1 | – | – | – |
| CC(=Nc1ccccc1F)c1c(C)cc(=O)n(O)c1O [Compound 21, 5-(1-((2-fluorophenyl)imino)ethyl)-1,6-dihydroxy-4-methylpyridin-2(1H)-one] | 86.3 ± 10.2 | > 200 | > 100 | 2.2 ± 0.5 | 5.72 | > 1 | – | – | – |
| CC(=Nc1cc(F)ccc1F)c1c(C)cc(=O)n(O)c1O [Compound 27, 5-(1-((2,5-difluorophenyl)imino)ethyl)-1,6-dihydroxy-4-methylpyridin-2(1H)-one] | 58.4 ± 21.9 | > 200 | > 100 | 1.97 ± 0.6 | 2.4 | > 1 | – | – | – |
| CC(=Nc1ccccc1Br)c1c(C)cc(=O)n(O)c1O [Compound 25, 5-(1-((2-bromophenyl)imino)ethyl)-1,6-dihydroxy-4-methylpyridin-2(1H)-one] | 45.8 ± 4.6 | > 200 | > 100 | 4.53 ± 2.5 | 3.12 | > 1 | – | – | – |
| CC(=NOCc1ccc(Cl)cc1Cl)c1c(C)cc(=O)n(O)c1O [Compound 31, 5-(1-(((2,4-dichlorobenzyl)oxy)imino)ethyl)-1,6-dihydroxy-4-methylpyridin-2(1H)-one] | 34.4 ± 14.1 | > 200 | > 100 | 0.5 | 4 | > 1 | 0.53 ± 0.3 | – | – |
| CC(=Nc1ccccc1Cl)c1c(C)cc(=O)n(O)c1O [Compound 23, 5-(1-((2-chlorophenyl)imino)ethyl)-1,6-dihydroxy-4-methylpyridin-2(1H)-one] | 76.8 ± 5.9 | > 200 | > 100 | 2.42 ± 1 | 2.83 | > 1 | – | – | – |
| 2-amino-4-(2-bromophenoxy)-6-iminopyrimidin-1(6H)-ol [Compound 44] | – | – | – | – | – | – | – | inactive against HBV | > 100 |
| CC(=NOCc1ccccc1Cl)C1C(=O)NC(=O)NC1=O [Compound 45, 5-(1-(((2-chlorobenzyl)oxy)imino)ethyl)pyrimidine-2,4,6(1H,3H,5H)-trione] | 100 | – | – | 100 | – | – | – | inactive; also recorded: lack of inhibition; also recorded: lack of activity | – |
